The text below walks through data of article PMC10094418, “Butein Inhibits Cell Growth by Blocking the IL-6/IL-6Rα Interaction in Human Ovarian Cancer and by Regulation of the IL-6/STAT3/FoxO3a Pathway” (International Journal of Molecular Sciences, 2023).

SMILES strings stand for the structures.

In one test the target is T1, IL-6/IL-6Rα interaction (Homo sapiens, UniProt P05231).
T1 construct: purchased BioLegend (IL-6); Acro biosystems (IL-6Ra) 570806 (IL-6); ILR-H5259 (IL-6Ra)
Put plainly: ELISA of the IL-6/IL-6Rα interaction. The format is binding. Particulars: at 20 μM. As for the experimental part: An amount of 0.5 μg/mL rhIL-6 protein (Cat.no.570806, BioLegend) was coated onto 96-well ELISA plates at 4 °C overnight, and then the plates were washed with PBST (1 × PBS containing 0.05% Tween-20), followed by the addition of PBSA (1 × PBS containing 1% bovine serum albumin (BSA)) (Bovogen, East Keilor, Australia) for 1 h at room temperature. After blocking, the FDA-approved compounds (20 uM) (Cat.no. L-1300, Selleckchem, Houston, TX, USA) were incubated for 2 h at room temperature. After washing three times with PBST, 0.2 μg/mL recombinant IL-6Ra protein (Cat.no.ILR-H5259, Acro biosystems, Newark, DE, USA) was added to the plates, which were incubated for 1 h. After washing three times with PBST, HRP-conjugated goat anti-human IgG Ab (Cat.no. 10-035-098, Jackson Immno, Hatfield, West Grove, PA, USA) was added to the plates and incubated for 1 h. After washing three times with PBST, TMB solution (Cat.no.11684302001, Roche, Mannheim, Germany) was added to the plates and incubated for 15 min. Then, stop solution (2N HCl) was added to the plates. The absorbance was measured at 450 nm using the Epoch microplate spectrophotometer (BioTek instruments, Winooski, VT, USA).
For orientation: In an ELISA, binding on a coated surface is turned into a signal by an enzyme label.

Test [1] concerns SKOV3 cells. Put plainly: Cell viability by MTT assay, SKOV3. Format: cell-based. To be noted: Homo sapiens, SK-OV-3, 48 h. The procedure: A2780 and SKOV3 cell lines were purchased from the European Collection of Cell Cultures (ECACC, London, UK) and Korean Cell Line Bank (KCLB, Seoul, Republic of Korea) respectively. Each cell line was seeded in a 96-well plate at an appropriate cell number (3000 cells/100 μL in each well). After 24 h, butein was added to the plates at each of the following concentrations, 0, 3.125, 6.25, 12.5, 25, and 50 μM, in triplicate in the presence of serum medium. After 48 h, 100 μL of […] (Sigma-Aldrich, St. Louis, MO, USA) solubilizing solution was added to each well and incubated for 4 h. The solution was then aspirated, and 100 μL of DMSO was added for cell lysis. The spectrophotometric absorbance was measured at 540 nm. Half of the maximum inhibitory concentration (IC50) was determined using GraphPad Prism software (version 7.0).
A general note: Tetrazolium dyes change colour on reduction, which living cells bring about.

Test [2] deals with SKOV3 cells. As to the kind of experiment: Annexin V apoptosis assay, SKOV3. Particulars: dose-dependent, p < 0.005. Format: cell-based, human. The procedure:
A2780 and SKOV3 cell lines were treated with control (siltuximab 10 μM) and butein (5, 10, and 25 μM). After 6 h, the cells were fixed with 70% ethanol for cell cycle analysis and stained with propidium iodide (PI). Cell death was analyzed using the FITC Annexin V Apoptosis Detection kit with 7-AAD (Cat.no. 640922, BioLegend, San Diego, CA, USA). Cells were sorted using a FACS Canto II (BD Biosciences, Franklin Lakes, NJ, USA) and cell cycle and apoptosis were analyzed using BD FACS Diva software version 6. 2. Analysis (BD Biosciences, Franklin Lakes, NJ, USA) was performed in triplicate.

Test [3] concerns SKOV3 cells. Put plainly: Clonogenic formation assay, SKOV3. Format: cell-based, human. To be noted: compared with control siltuximab-treated cells. As for the experimental part: A2780 and SKOV3 cell lines were seeded at approximately 5000 cells/well in 24-well plates. Butein was added to the cell medium at various concentrations (5, 10, and 25 μM) together with control siltuximab (CTNO328; EUSA Pharma, Inc., Hemel Hempstead, UK) for 12 h. After 2 weeks, the colonies formed were fixed with fixer buffer, stained with crystal violet, and imaged with a ChemiDoc imaging system (Bio-Rad, Herles, CA, USA).

Test [4] deals with A2780 cells. Put plainly: Wound-healing assay, A2780. Format: cell-based, human. Particulars: 24 h and 48 h, concentration-dependent, vs control, 0.1% DMSO and siltuximab. As for the experimental part: A2780 and SKOV3 cells were cultured to 90% confluence in 6-well plates. After changing to a serum-free medium, the cell monolayer was scraped to artificially form homogeneous wound with uniform thickness. The drug treatment for each well was carried out in the following manner: siltuximab at 50 μM; butein at 10, 25, and 50 μM. The cells were imaged at 0, 24, and 48 h.

Test [5] concerns A2780 cells. Put plainly: Matrigel invasion assay, A2780. The format is cell-based, human. Particulars: 48 h. The procedure:
(§1) Matrigel invasion assays were performed using a BioCoat Matrigel Invasion Chamber (BD Bioscience, Bedford, MA, USA). A2780 and SKOV3 cells (50,000 cells) were placed inside the chamber in serum-free medium containing 500 μL of drugs, and 700 μL of medium containing serum were placed outside the chamber. After incubation for 48 h, the infiltrating cells were stained using the Differential Quick Stain Kit (Cat.no. 26096-50, Electron Microscopy Sciences, Hatfield, PA, USA). Cells were imaged with a Slide Scanner (Aperio CS2, Leica Microsystems, Wetzlar, Germany) and the number of invading cells was quantified using Image J.

Test [6] deals with SKOV3 cells. Put plainly: Matrigel invasion assay, SKOV3. Format: cell-based, human. To be noted: 48 h. As for the experimental part:
as §1

In test [7] the test system is STAT3 phosphorylation in A2780 cells. Put plainly: Western blotting of STAT3 phosphorylation, A2780. Format: cell-based, human. To be noted: relative to IL-6 treated cells. The procedure:
After each drug treatment of the cells, the cells were dissolved in 100 μL of radioimmunoprecipitation assay (RIPA) buffer (Thermo Fisher Scientific Inc., Waltham, MA, USA) and centrifuged to separate the supernatant containing protein. Isolated protein concentrations were measured using the Pierce BCA Protein Assay Kit (Thermo Fisher Scientific Inc., Waltham, MA, USA). Aliquots of proteins quantified at […] were boiled at 100 °C in 5× sample buffer, separated on a 12% SDS-polyacrylamide gel and electrophoresed onto polyvinylidene difluoride (PDVF) membranes (Millipore, Billerica, MA, USA). The PDVF membranes were blocked for 1 h at 25 °C with 5% BSA in 1× tris buffered saline containing 0.05% Tween20 (TBST) (Sigma-Aldrich, St. Louis, MO, USA). The membrane was incubated in the primary antibody at 4 °C overnight. PDVF membranes were washed with 1× TBST and incubated with AffiniPure goat anti-rabbit IgG secondary antibody (Jackson Immunoresearch, West Grove, PA, USA) for 1 h at room temperature. After washing again with TBST buffer, enhanced signals were detected using the SuperSignal™ West Femto Maximum Sensitivity Substrate kit (cat.no. 34094, Thermo Scientific, Rockford, IL, USA). The blot was imaged using the ChemiDoc imaging system (Bio-Rad, Herles, CA, USA), and protein expression was quantified with the ImageJ software (v1.8.0).

T1 sequence (P05231 30-212): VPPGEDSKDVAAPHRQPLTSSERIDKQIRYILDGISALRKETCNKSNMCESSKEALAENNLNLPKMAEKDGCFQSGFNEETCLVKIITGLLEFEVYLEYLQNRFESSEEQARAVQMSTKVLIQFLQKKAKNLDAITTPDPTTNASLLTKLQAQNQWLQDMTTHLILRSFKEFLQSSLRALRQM

By IC50 is commonly meant the concentration that inhibits the measured activity by half. A lower IC50 goes with greater potency in that assay. As for `O=C(/C=C/c1ccc(O)c(O)c1)c1ccc(O)cc1O` [butein], the “Reduction of the interaction between IL-6 and IL-6Rα” value on IL-6/IL-6Rα interaction is given as 21.7%. In the test with SKOV3 cells [1], this molecule registered an IC50 of 175 ± 61.9 µM. In the test with SKOV3 cells [2], the “Total apoptosis, SKOV3” value is “significantly increase”. Also, the “Clonogenicity, SKOV3” value in the test on SKOV3 cells [3] was “significantly inhibited”. In addition, in the test on A2780 cells [4], the “Cell migration, A2780” value is on record as “reduced”. In addition, in the test with A2780 cells [5], the “Cell infiltration (invasion), A2780” value is recorded as “similarly affected”. For the same molecule, in the test with SKOV3 cells [6], the “Cell infiltration (invasion), SKOV3” value is reported as “similarly affected”. In test [7], the “Phosphorylation of STAT3, A2780” value is reported as “inhibited in a concentration-dependent manner”.
